Data taken from patent US10766882B2, “1,2-naphthoquinone based derivative and method of preparing the same” (YUNGJIN PHARM. CO., LTD., priority 2013, dated 2020).

These compounds were tested against NQO1 protein (Homo sapiens, UniProt P15559) (assay: NQO1 activity measurement (cytochrome C reduction)). Conditions: 5 ng NQO1 protein, 200 μM NADH, 77 μM cytochrome C, 37° C., absorbance 550 nm for 10 minutes.
Sequence of NQO1 protein (P15559 whole entry, species assumed): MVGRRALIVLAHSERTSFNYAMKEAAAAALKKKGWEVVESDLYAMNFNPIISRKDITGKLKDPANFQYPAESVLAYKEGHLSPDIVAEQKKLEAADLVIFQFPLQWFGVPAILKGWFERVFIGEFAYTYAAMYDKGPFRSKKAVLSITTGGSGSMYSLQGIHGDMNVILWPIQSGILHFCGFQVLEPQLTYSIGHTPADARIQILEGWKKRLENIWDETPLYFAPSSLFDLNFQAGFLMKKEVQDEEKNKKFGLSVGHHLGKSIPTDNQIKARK
Format: biochemical
Method: An enzyme reaction solution included 25 mM Tris/HCl (pH 7.4), 0.14% bovine serum albumin, 200 μM NADH, 77 μM cytochrome C, and 5 ng of NQO1 protein. Enzymatic reaction was initiated by adding NADH and performed at 37° C. In this regard, a reaction rate was measured by observing absorbance, which was increased due to reduction of cytochrome C, at 550 nm for 10 minutes and NQO1 activity was represented as an amount of reduced cytochrome C [nmol cytochrome C reduced/min/μg protein].
Extinction coefficient for cytochrome C:21.1 mmol/L/cm=21.1 μmol/ml/cm
In the case of `Cc1cc(F)ccc1N(Cc1nc2c([nH]1)C(=O)C(=O)c1ccccc1-2)C(=O)OC(C)(C)C` [Example 52], the “NQO1 activity (5 μM, [nmol cytochrome C reduced/min/μg protein])” value is reported as 60.3 nmol cytochrome C reduced/min/μg protein.
With `O=C1C(=O)c2[nH]c(Cl)nc2-c2ccccc21` [Example 70, 2-chloro-3H-naphtho[2,1-d]imidazole-4,5-dione] the “NQO1 activity (5 μM, [nmol cytochrome C reduced/min/μg protein])” value was 83.9 nmol cytochrome C reduced/min/μg protein.
In the case of `O=C1C(=O)c2[nH]c(-c3cccnc3)nc2-c2ccccc21` [Example 87], the “NQO1 activity (5 μM, [nmol cytochrome C reduced/min/μg protein])” value is reported as 94.7 nmol cytochrome C reduced/min/μg protein.
`CC(C)c1nc2c(n1CCO)C(=O)C(=O)c1ccccc1-2` [Example 68, 3-(2-hydroxyethyl)-2-isopropyl-3H-naphtho[2,1-d]imidazole-4,5-dione] was tested, and the “NQO1 activity (5 μM, [nmol cytochrome C reduced/min/μg protein])” value was 143.0 nmol cytochrome C reduced/min/μg protein.
In the case of `CN1CCN(c2nc3c([nH]2)C(=O)C(=O)c2ccccc2-3)CC1` [Example 75, 2-(4-methylpiperazin-1-yl)-3H-naphtho[2,1-d]imidazole-4,5-dione], the “NQO1 activity (5 μM, [nmol cytochrome C reduced/min/μg protein])” value is reported as 26.9 nmol cytochrome C reduced/min/μg protein.
With `O=C1C(=O)c2[nH]c(CCc3ccc(F)cc3)nc2-c2ccccc21` [Example 54] the “NQO1 activity (5 μM, [nmol cytochrome C reduced/min/μg protein])” value was 126.9 nmol cytochrome C reduced/min/μg protein.
In the case of `Cc1cc(F)ccc1NCc1nc2c([nH]1)C(=O)C(=O)c1ccccc1-2` [Example 53], the “NQO1 activity (5 μM, [nmol cytochrome C reduced/min/μg protein])” value is reported as 112.6 nmol cytochrome C reduced/min/μg protein.
For `CC(c1nc2c([nH]1)C(=O)C(=O)c1ccccc1-2)N1CCCC1` (stereo not drawn) [Example 65], the “NQO1 activity (5 μM, [nmol cytochrome C reduced/min/μg protein])” value was 93.5 nmol cytochrome C reduced/min/μg protein.
With `CC(c1nc2c([nH]1)C(=O)C(=O)c1ccccc1-2)N1CCOCC1` (stereo not drawn) [Example 61] the “NQO1 activity (5 μM, [nmol cytochrome C reduced/min/μg protein])” value was 204.1 nmol cytochrome C reduced/min/μg protein.
In the case of `CC(C)c1nc2c(n1CCN(C)C)C(=O)C(=O)c1ccccc1-2` [Example 72], the “NQO1 activity (5 μM, [nmol cytochrome C reduced/min/μg protein])” value is reported as 51.0 nmol cytochrome C reduced/min/μg protein.
For `CCc1nc2c(n1C(C)C)C(=O)C(=O)c1cc(F)ccc1-2` [Example 89], the “NQO1 activity (5 μM, [nmol cytochrome C reduced/min/μg protein])” value was 145.0 nmol cytochrome C reduced/min/μg protein.
In the case of `CCc1nc2c(n1C(C)C)C(=O)C(=O)c1ccccc1-2` [Example 90], the “NQO1 activity (5 μM, [nmol cytochrome C reduced/min/μg protein])” value is reported as 241.3 nmol cytochrome C reduced/min/μg protein.
In the case of `CCOc1nc2c(n1C)C(=O)C(=O)c1ccccc1-2` [Example 74], the “NQO1 activity (5 μM, [nmol cytochrome C reduced/min/μg protein])” value is reported as 193.5 nmol cytochrome C reduced/min/μg protein.
In the case of `CC(C)(O)c1nc2c([nH]1)C(=O)C(=O)c1ccccc1-2` [Example 76], the “NQO1 activity (5 μM, [nmol cytochrome C reduced/min/μg protein])” value is reported as 183.5 nmol cytochrome C reduced/min/μg protein.
For `CN(C)c1nc2c([nH]1)C(=O)C(=O)c1ccccc1-2` [Example 62, 2-(dimethylamino)-3H-naphtho[2,1-d]imidazole-4,5-dione], the “NQO1 activity (5 μM, [nmol cytochrome C reduced/min/μg protein])” value was 113.3 nmol cytochrome C reduced/min/μg protein.
`O=C1C(=O)c2[nH]c(C3CCCO3)nc2-c2ccccc21` (stereo not drawn) [Example 73] was tested, and the “NQO1 activity (5 μM, [nmol cytochrome C reduced/min/μg protein])” value was 180.8 nmol cytochrome C reduced/min/μg protein.
In the case of `CC(C)c1nc2c(n1Cc1ccncc1)C(=O)C(=O)c1ccccc1-2` [Example 81], the “NQO1 activity (5 μM, [nmol cytochrome C reduced/min/μg protein])” value is reported as 169.4 nmol cytochrome C reduced/min/μg protein.
`CC(c1nc2c([nH]1)C(=O)C(=O)c1ccccc1-2)N(C)C` (stereo not drawn) [Example 60] was tested, and the “NQO1 activity (5 μM, [nmol cytochrome C reduced/min/μg protein])” value was 140.1 nmol cytochrome C reduced/min/μg protein.
For `O=C1C(=O)c2[nH]c(-c3nc4c([nH]3)C(=O)C(=O)c3ccccc3-4)nc2-c2ccccc21` [Example 92], the “NQO1 activity (5 μM, [nmol cytochrome C reduced/min/μg protein])” value was 186.8 nmol cytochrome C reduced/min/μg protein.
In the case of `O=C1C(=O)c2[nH]c(N3CCOCC3)nc2-c2ccccc21` [Example 67, 2-morpholino-3H-naphtho[2,1-d]imidazole-4,5-dione], the “NQO1 activity (5 μM, [nmol cytochrome C reduced/min/μg protein])” value is reported as 143.1 nmol cytochrome C reduced/min/μg protein.
With `CC(C)c1nc2c(n1C(C)C)C(=O)C(=O)c1ccccc1-2` [Example 85] the “NQO1 activity (5 μM, [nmol cytochrome C reduced/min/μg protein])” value was 135.4 nmol cytochrome C reduced/min/μg protein.
With `CC(C)c1nc2c(n1Cc1ccccn1)C(=O)C(=O)c1ccccc1-2` [Example 84] the “NQO1 activity (5 μM, [nmol cytochrome C reduced/min/μg protein])” value was 172.0 nmol cytochrome C reduced/min/μg protein.
With `CCc1nc2c(n1CC)C(=O)C(=O)c1cc(F)ccc1-2` [Example 88] the “NQO1 activity (5 μM, [nmol cytochrome C reduced/min/μg protein])” value was 187.4 nmol cytochrome C reduced/min/μg protein.
For `O=C1C(=O)c2[nH]c(N3CCCC3)nc2-c2ccccc21` [Example 63, 2-(pyrrolidin-1-yl)-3H-naphtho[2,1-d]imidazole-4,5-dione], the “NQO1 activity (5 μM, [nmol cytochrome C reduced/min/μg protein])” value was 40.3 nmol cytochrome C reduced/min/μg protein.
With `CN(C)Cc1nc2c([nH]1)C(=O)C(=O)c1ccccc1-2` [Example 59] the “NQO1 activity (5 μM, [nmol cytochrome C reduced/min/μg protein])” value was 149.3 nmol cytochrome C reduced/min/μg protein.
In the case of `CCc1nc2c(n1CC)C(=O)C(=O)c1ccccc1-2` [Example 86], the “NQO1 activity (5 μM, [nmol cytochrome C reduced/min/μg protein])” value is reported as 220.0 nmol cytochrome C reduced/min/μg protein.
`Cc1cc(F)ccc1OCc1nc2c([nH]1)C(=O)C(=O)c1ccccc1-2` [Example 50] was tested, and the “NQO1 activity (5 μM, [nmol cytochrome C reduced/min/μg protein])” value was 100.6 nmol cytochrome C reduced/min/μg protein.
For `CC(F)(F)c1nc2c([nH]1)C(=O)C(=O)c1ccccc1-2` [Example 82], the “NQO1 activity (5 μM, [nmol cytochrome C reduced/min/μg protein])” value was 70.2 nmol cytochrome C reduced/min/μg protein.
In the case of `CC(C)c1nc2c([nH]1)C(=O)C(=O)c1cc(NC(=O)C3CC3)ccc1-2` [Example 20], the “NQO1 activity (5 μM, [nmol cytochrome C reduced/min/μg protein])” value is reported as 6.4 nmol cytochrome C reduced/min/μg protein.
For `Cn1c(COc2ccc(F)cc2)nc2c1C(=O)C(=O)c1ccccc1-2` [Example 80], the “NQO1 activity (5 μM, [nmol cytochrome C reduced/min/μg protein])” value was 162.6 nmol cytochrome C reduced/min/μg protein.
For `CC(C)c1nc2c(n1CCCl)C(=O)C(=O)c1ccccc1-2` [Example 64], the “NQO1 activity (5 μM, [nmol cytochrome C reduced/min/μg protein])” value was 189.5 nmol cytochrome C reduced/min/μg protein.
In the case of `CC(C)c1nc2c(n1Cn1c(C(C)C)nc3c1C(=O)C(=O)c1ccccc1-3)C(=O)C(=O)c1ccccc1-2` [Example 69], the “NQO1 activity (5 μM, [nmol cytochrome C reduced/min/μg protein])” value is reported as 160.5 nmol cytochrome C reduced/min/μg protein.
For `CC(O)c1nc2c(n1C(C)C)C(=O)C(=O)c1ccccc1-2` (stereo not drawn) [Example 91], the “NQO1 activity (5 μM, [nmol cytochrome C reduced/min/μg protein])” value was 206.9 nmol cytochrome C reduced/min/μg protein.
With `CN(Cc1nc2c([nH]1)C(=O)C(=O)c1ccccc1-2)c1ccccc1` [Example 51, 2-((methyl (phenyl)amino)methyl)-3H-naphtho[2,1-d]imidazole-4,5-dione] the “NQO1 activity (5 μM, [nmol cytochrome C reduced/min/μg protein])” value was 140.8 nmol cytochrome C reduced/min/μg protein.
For `CCOc1nc2c([nH]1)C(=O)C(=O)c1ccccc1-2` [Example 71], the “NQO1 activity (5 μM, [nmol cytochrome C reduced/min/μg protein])” value was 124.7 nmol cytochrome C reduced/min/μg protein.
In the case of `O=C1C(=O)c2[nH]c(COc3ccc(F)cc3)nc2-c2ccccc21` [Example 79], the “NQO1 activity (5 μM, [nmol cytochrome C reduced/min/μg protein])” value is reported as 96.9 nmol cytochrome C reduced/min/μg protein.
For `CC(C)c1nc2c(n1Cc1cccnc1)C(=O)C(=O)c1ccccc1-2` [Example 83], the “NQO1 activity (5 μM, [nmol cytochrome C reduced/min/μg protein])” value was 162.5 nmol cytochrome C reduced/min/μg protein.
`CC(C)c1nc2c(n1CCN1CCOCC1)C(=O)C(=O)c1ccccc1-2` [Example 66] was tested, and the “NQO1 activity (5 μM, [nmol cytochrome C reduced/min/μg protein])” value was 56.0 nmol cytochrome C reduced/min/μg protein.
For `CCC(CC)c1nc2c([nH]1)C(=O)C(=O)c1ccccc1-2` [Example 77], the “NQO1 activity (5 μM, [nmol cytochrome C reduced/min/μg protein])” value was 223.3 nmol cytochrome C reduced/min/μg protein.
